Test: refractive index (other wavelength) (dimensionless); xn = mol fraction of the nth substance listed
Settings: 95.99 kPa, Liquid, Standard Abbe refractometry

OCCOCCOCCO [triethylene glycol] + O
refractive index
Settings	Wavelength=404.7 nm	Wavelength=435.8 nm	Wavelength=486.1 nm	Wavelength=546.1 nm	Wavelength=587.6 nm	Wavelength=589.3 nm	Wavelength=632.8 nm	Wavelength=644 nm	Wavelength=706.5 nm
308.15 K, x2 = 0	–	–	–	–	–	–	–	1.44909	1.44737
308.15 K, x2 = 0.1056	–	–	–	–	–	–	–	1.44778	1.44608
308.15 K, x2 = 0.2069	–	–	–	–	–	–	–	1.44621	1.4451
308.15 K, x2 = 0.3104	–	–	–	–	–	–	–	1.44392	1.44202
308.15 K, x2 = 0.4844	–	–	–	–	–	–	–	1.43913	1.43745
308.15 K, x2 = 0.5016	–	–	–	–	–	–	–	1.43819	1.43653
308.15 K, x2 = 0.5952	–	–	–	–	–	–	–	1.43167	1.42998
308.15 K, x2 = 0.6016	–	–	–	–	–	–	–	1.43191	1.43023
308.15 K, x2 = 0.6788	–	–	–	–	–	–	–	1.42543	1.42374
308.15 K, x2 = 0.7835	–	–	–	–	–	–	–	1.41701	1.41536
308.15 K, x2 = 0.8184	–	–	–	–	–	–	–	1.41118	1.40951
308.15 K, x2 = 0.8473	–	–	–	–	–	–	–	1.4049	1.40326
308.15 K, x2 = 0.8719	–	–	–	–	–	–	–	1.39819	1.39653
308.15 K, x2 = 0.8926	–	–	–	–	–	–	–	1.39069	1.38904
308.15 K, x2 = 0.9106	–	–	–	–	–	–	–	1.38534	1.38371
308.15 K, x2 = 0.9254	–	–	–	–	–	–	–	1.37569	1.37409
308.15 K, x2 = 0.9303	–	–	–	–	–	–	–	1.37659	1.37498
308.15 K, x2 = 0.9391	–	–	–	–	–	–	1.37329	1.37297	1.37137
308.15 K, x2 = 0.951	–	–	–	–	–	–	1.36686	1.36654	1.36496
308.15 K, x2 = 0.9599	–	–	–	–	–	–	1.36065	1.36033	1.35875
308.15 K, x2 = 0.9708	–	–	–	–	–	–	1.35307	1.35275	1.35119
308.15 K, x2 = 0.979	–	–	–	–	–	–	1.34835	1.34803	1.34647
308.15 K, x2 = 0.9867	–	–	–	–	–	–	1.34205	1.34175	1.34023
308.15 K, x2 = 0.9936	–	–	–	–	–	–	1.33605	1.33576	1.33425
313.15 K, x2 = 0	1.46216	1.45863	1.45448	1.45106	1.44927	1.4492	1.44766	1.44731	1.44561
313.15 K, x2 = 0.1056	1.46096	1.45744	1.4533	1.4499	1.44812	1.44806	1.44652	1.44616	1.44445
313.15 K, x2 = 0.2069	1.45931	1.45583	1.45169	1.44831	1.44653	1.44647	1.44494	1.44459	1.44288
313.15 K, x2 = 0.3104	1.45682	1.45335	1.44921	1.44581	1.44397	1.44244	1.44209	1.44136	1.4404
313.15 K, x2 = 0.4844	1.45391	1.45049	1.44639	1.44305	1.44124	1.44046	1.43954	1.43899	1.43766
313.15 K, x2 = 0.5016	1.45102	1.44762	1.44358	1.44028	1.43853	1.43847	1.43695	1.43661	1.43492
313.15 K, x2 = 0.5952	1.44431	1.44094	1.43703	1.43376	1.43204	1.43197	1.43049	1.43015	1.42848
313.15 K, x2 = 0.6016	1.44384	1.44387	1.43615	1.43304	1.43132	1.43126	1.43021	1.42952	1.42809
313.15 K, x2 = 0.6788	1.43802	1.43469	1.43086	1.42768	1.42601	1.42559	1.42446	1.42411	1.42243
313.15 K, x2 = 0.7835	1.42903	1.42572	1.42205	1.41893	1.41728	1.41722	1.41578	1.41543	1.41372
313.15 K, x2 = 0.8184	1.42287	1.41965	1.41597	1.41287	1.41125	1.41119	1.40976	1.40942	1.40776
313.15 K, x2 = 0.8473	1.4172	1.41405	1.41039	1.40736	1.40575	1.40569	1.40427	1.40394	1.40231
313.15 K, x2 = 0.8719	1.41026	1.40715	1.40359	1.40061	1.39902	1.39896	1.39756	1.39723	1.39559
313.15 K, x2 = 0.8926	1.40276	1.39972	1.39624	1.39332	1.39177	1.39171	1.39035	1.39002	1.3884
313.15 K, x2 = 0.9106	1.39726	–	1.39088	1.38799	1.38648	1.38642	1.38508	1.38475	1.38313
313.15 K, x2 = 0.9254	1.38778	1.38484	1.38148	1.37865	1.37712	1.37706	1.37569	1.37537	1.37376
313.15 K, x2 = 0.9303	1.38834	1.38538	1.38203	1.3792	1.37769	1.37763	1.37629	1.37596	1.37435
313.15 K, x2 = 0.9391	1.38513	1.38218	1.37884	1.37598	1.37445	1.3744	1.37305	1.37272	1.37112
313.15 K, x2 = 0.951	1.37841	1.37555	1.37228	1.36949	1.36803	1.36794	1.36662	1.3663	1.36471
313.15 K, x2 = 0.9599	1.37093	1.36813	1.36494	1.36219	1.36072	1.36066	1.35936	1.35904	1.35747
313.15 K, x2 = 0.9708	1.36388	1.36116	1.35801	1.35533	1.35388	1.35383	1.35253	1.35221	1.35066
313.15 K, x2 = 0.979	1.35918	1.3565	1.35339	1.35071	1.34929	1.34923	1.34796	1.34764	1.3461
313.15 K, x2 = 0.9867	1.35221	1.34957	1.34651	1.34386	1.34243	1.34238	1.34111	1.34081	1.33932
313.15 K, x2 = 0.9936	1.34633	1.34376	1.34073	1.33811	1.3367	1.33665	1.3354	1.3351	1.33361

Reference: the NIST ThermoML archive (doi:10.1016/j.fluid.2015.07.030)
